The values below come from BindingDB's records for doi:10.1016/s0968-0896(98)00004-2 (Sankyo, 1998).

Each structure is given as a SMILES string.

This assay concerns the target T1, Dimer of Gag-Pol polyprotein [489-587] (Human immunodeficiency virus 1, UniProt P12497).
T1 construct: 489-587
In words: Protease Inhibition Assay. The procedure: The inhibitory activities of the compounds toward HIV-1 PR were determined by sodium dodecyl sulfate-polyacrylamide gel electrophoresis (SDS-PAGE) assay. The IC50 values of active compounds were determined using the partially purified protease and the synthetic substrate Ac-Ser-Gln-AsnTyr-Pro-Ile-Val-NH2.
Broadly, the IC50 is the concentration needed to halve the response being measured. Read a low IC50 as higher potency. The compound `CC(C)(C)NC(=O)[C@@H]1C[C@H](Cl)CN1C(=O)[C@@H](O)[C@H](Cc1ccccc1)NC(=O)c1cccc(O)c1Br` [(2S,4S)-1-[(2S,3S)-3-[(2-bromo-3-hydroxyphenyl)formamido]-2-hydroxy-4-phenylbutanoyl]-N-tert-butyl-4-chloropyrrolidine-2-carboxamide] gave an IC50 of 1.5 nM.

In the case of `CC(C)(C)NC(=O)[C@@H]1C[C@H](Cl)CN1C(=O)[C@@H](O)[C@H](Cc1ccccc1)NC(=O)c1ccccc1O` [(2S,4S)-N-tert-butyl-4-chloro-1-[(2S,3S)-2-hydroxy-3-[(2-hydroxyphenyl)formamido]-4-phenylbutanoyl]pyrrolidine-2-carboxamide], the IC50 is over 1000 nM.

With `COC1O[C@H]2[C@H](OC(=O)N[C@@H](Cc3ccccc3)[C@H](O)C(=O)N3C[C@@H](Cl)C[C@H]3C(=O)NC(C)(C)C)[C@H](OC)OC[C@H]2O1` (stereo partly drawn) [(3aR,6R,7S,7aR)-2,6-dimethoxy-hexahydro-[1,3]dioxolo[4,5-c]pyran-7-yl N-[(2S,3S)-4-[(2S,4S)-2-(tert-butylcarbamoyl)-4-chloropyrrolidin-1-yl]-3-hydroxy-4-oxo-1-phenylbutan-2-yl]carbamate], the IC50 is over 1000 nM.

Regarding `CC(C)(C)NC(=O)[C@@H]1C[C@H](Cl)CN1C(=O)[C@@H](O)[C@H](Cc1ccccc1)NC(=O)O[C@H]1CCOC1` [(3S)-oxolan-3-yl N-[(2S,3S)-4-[(2S,4S)-2-(tert-butylcarbamoyl)-4-chloropyrrolidin-1-yl]-3-hydroxy-4-oxo-1-phenylbutan-2-yl]carbamate], half-maximal inhibition (IC50) required 5.1 nM.

`CC(C)(C)NC(=O)[C@@H]1C[C@H](Cl)CN1C(=O)[C@@H](O)[C@H](Cc1ccccc1)NC(=O)O[C@@H]1CO[C@H]2[C@@H]1OC[C@H]2O` [(3R,3aR,6R,6aR)-6-hydroxy-hexahydrofuro[3,2-b]furan-3-yl N-[(2S,3S)-4-[(2S,4S)-2-(tert-butylcarbamoyl)-4-chloropyrrolidin-1-yl]-3-hydroxy-4-oxo-1-phenylbutan-2-yl]carbamate] showed an IC50 of 25 nM.

As for `Cc1c(N)cccc1C(=O)N[C@@H](Cc1ccccc1)[C@H](O)C(=O)N1C[C@@H](Cl)C[C@H]1C(=O)NC(C)(C)C` [(2S,4S)-1-[(2S,3S)-3-[(3-amino-2-methylphenyl)formamido]-2-hydroxy-4-phenylbutanoyl]-N-tert-butyl-4-chloropyrrolidine-2-carboxamide], half-maximal inhibition (IC50) was put at 5.4 nM.

`CC(C)(C)NC(=O)[C@@H]1C[C@H](Cl)CN1C(=O)[C@@H](O)[C@H](Cc1ccccc1)NC(=O)O[C@H]1C=CCOC1` [[5(R) - (5,6 - Dihydro - 2H-pyranyl)oxy]carbonyl - (2S,3S)-AHPBA-4(S)-Cl-Pro-NH-t-Bu] registered an IC50 of 4.5 nM.

With `Cc1ccc(O)c(C)c1C(=O)N[C@@H](Cc1ccccc1)[C@H](O)C(=O)N1C[C@@H](Cl)C[C@H]1C(=O)NC(C)(C)C` [(2S,4S)-N-tert-butyl-4-chloro-1-[(2S,3S)-2-hydroxy-3-[(3-hydroxy-2,6-dimethylphenyl)formamido]-4-phenylbutanoyl]pyrrolidine-2-carboxamide], 2.5 nM corresponded to half-maximal inhibition (IC50).

For `CC(C)(C)NC(=O)[C@@H]1C[C@H](Cl)CN1C(=O)[C@@H](O)[C@H](Cc1ccccc1)NC(=O)c1ccccc1N`, the IC50 amounted to 39 nM.

As for `CCCc1c(O)cccc1C(=O)N[C@@H](Cc1ccccc1)[C@H](O)C(=O)N1C[C@@H](Cl)C[C@H]1C(=O)NC(C)(C)C` [(2S,4S)-N-tert-butyl-4-chloro-1-[(2S,3S)-2-hydroxy-3-[(3-hydroxy-2-propylphenyl)formamido]-4-phenylbutanoyl]pyrrolidine-2-carboxamide], the IC50 was found to be 1.6 nM.

`CC(C)(C)NC(=O)[C@@H]1C[C@H](Cl)CN1C(=O)[C@@H](O)[C@H](Cc1ccccc1)NC(=O)c1ccccc1Cl` [2-Chlorobenzoyl-(2S,3S)-AHPBA-4(S)-Cl-Pro-NH-t-Bu] registered a concentration for half-maximal inhibition (IC50) of 11 nM.

Turning to `CC(C)(C)NC(=O)[C@@H]1C[C@H](Cl)CN1C(=O)[C@@H](O)[C@H](Cc1ccccc1)NC(=O)c1ccccc1Br` [(2S,4S)-1-[(2S,3S)-3-[(2-bromophenyl)formamido]-2-hydroxy-4-phenylbutanoyl]-N-tert-butyl-4-chloropyrrolidine-2-carboxamide], half-maximal inhibition (IC50) was put at 12 nM.

`CO[C@@H]1OCC=C[C@@H]1OC(=O)N[C@@H](Cc1ccccc1)[C@H](O)C(=O)N1C[C@@H](Cl)C[C@H]1C(=O)NC(C)(C)C` [[5(S)-[6(R)-Methoxy-5,6-dihydro-2H-pyranyl]oxy]carbonyl-(2S,3S)-AHPBA-4(S)-Cl-Pro-NH-t-Bu] had an IC50 of 29 nM.

On to `Cc1cccc(C)c1C(=O)N[C@@H](Cc1ccccc1)[C@H](O)C(=O)N1C[C@@H](Cl)C[C@H]1C(=O)NC(C)(C)C`, for which the IC50 was 3.6 nM.

In turn, `CC(C)(C)NC(=O)[C@@H]1C[C@H](Cl)CN1C(=O)[C@@H](O)[C@H](Cc1ccccc1)NC(=O)c1cccc2ccccc12` [(2S,4S)-N-tert-butyl-4-chloro-1-[(2S,3S)-2-hydroxy-3-(naphthalen-1-ylformamido)-4-phenylbutanoyl]pyrrolidine-2-carboxamide] showed an IC50 of 9 nM.

As for `CC(C)(C)NC(=O)[C@@H]1C[C@H](Cl)CN1C(=O)[C@@H](O)[C@H](Cc1ccccc1)NC(=O)c1ccc(O)cc1` [4-Hydroxybenzoyl-(2S,3S)-AHPBA-4(S)-Cl-Pro-NH-t-Bu], the IC50 was 33 nM.

Consider `CC(C)(C)NC(=O)[C@@H]1C[C@H](Cl)CN1C(=O)[C@@H](O)[C@H](Cc1ccccc1)NC(=O)OC1CCOC1` (stereo partly drawn) [[3(R,S)-(Tetrahydrofuranyl)oxy]carbonyl-(2S,3S)-AHPBA-4(S)-Cl-Pro-NH-t-Bu], for which the IC50 was 4.9 nM.

On to `Cc1ccccc1C(=O)N[C@@H](Cc1ccccc1)[C@H](O)C(=O)N1C[C@@H](Cl)C[C@H]1C(=O)NC(C)(C)C` [2-Methylbenzoyl-(2S,3S)-AHPBA-4(S)-Cl-Pro-NH-t-Bu], for which it took 5.1 nM to reach half-maximal inhibition (IC50).

As for `CC(C)(C)NC(=O)[C@@H]1C[C@H](Cl)CN1C(=O)[C@@H](O)[C@H](Cc1ccccc1)NC(=O)c1ccccc1I`, inhibition was half-maximal at 14 nM (IC50).

As to `CC(C)(C)NC(=O)[C@@H]1C[C@H](Cl)CN1C(=O)[C@@H](O)[C@H](Cc1ccccc1)NC(=O)OC1CCSC1` (stereo partly drawn) [thiolan-3-yl N-[(2S,3S)-4-[(2S,4S)-2-(tert-butylcarbamoyl)-4-chloropyrrolidin-1-yl]-3-hydroxy-4-oxo-1-phenylbutan-2-yl]carbamate], 7.7 nM corresponded to half-maximal inhibition (IC50).

Compound `CO[C@@H]1OCCC[C@@H]1OC(=O)N[C@@H](Cc1ccccc1)[C@H](O)C(=O)N1C[C@@H](Cl)C[C@H]1C(=O)NC(C)(C)C` [(2R,3S)-2-methoxyoxan-3-yl N-[(2S,3S)-4-[(2S,4S)-2-(tert-butylcarbamoyl)-4-chloropyrrolidin-1-yl]-3-hydroxy-4-oxo-1-phenylbutan-2-yl]carbamate] showed an IC50 of 37 nM.

On to `CC(C)(C)NC(=O)[C@@H]1C[C@H](Cl)CN1C(=O)[C@@H](O)[C@H](Cc1ccccc1)NC(=O)O[C@H]1CCCOC1` [(3S)-oxan-3-yl N-[(2S,3S)-4-[(2S,4S)-2-(tert-butylcarbamoyl)-4-chloropyrrolidin-1-yl]-3-hydroxy-4-oxo-1-phenylbutan-2-yl]carbamate], for which the IC50 was determined as 14 nM.

`CC(C)(C)NC(=O)[C@@H]1C[C@H](Cl)CN1C(=O)[C@@H](O)[C@H](Cc1ccccc1)NC(=O)c1cccc(F)c1` [3-Fluorobenzoyl-(2S,3S)-AHPBA-4(S)-Cl-Pro-NH-t-Bu] registered an IC50 of 20 nM.

`CC(C)(C)NC(=O)[C@@H]1C[C@H](Cl)CN1C(=O)[C@@H](O)[C@H](Cc1ccccc1)NC(=O)OC1CCCC1` [cyclopentyl N-[(2S,3S)-4-[(2S,4S)-2-(tert-butylcarbamoyl)-4-chloropyrrolidin-1-yl]-3-hydroxy-4-oxo-1-phenylbutan-2-yl]carbamate] had an IC50 of 19 nM.

Take `CC(C)(C)NC(=O)[C@@H]1C[C@H](Cl)CN1C(=O)[C@@H](O)[C@H](Cc1ccccc1)NC(=O)OC1CCS(=O)(=O)C1` (stereo partly drawn) [[3(R,S) - (1,1 - Dioxo - tetrahydrothiophenyl)oxy]carbonyl-(2S,3S)-AHPBA-4(S)-Cl-Pro-NH-t-Bu]: half-maximal inhibition (IC50) was put at 11 nM.

`CO[C@H]1OCC=C[C@H]1OC(=O)N[C@@H](Cc1ccccc1)[C@H](O)C(=O)N1C[C@@H](Cl)C[C@H]1C(=O)NC(C)(C)C` [(2S,3R)-2-methoxy-3,6-dihydro-2H-pyran-3-yl N-[(2S,3S)-4-[(2S,4S)-2-(tert-butylcarbamoyl)-4-chloropyrrolidin-1-yl]-3-hydroxy-4-oxo-1-phenylbutan-2-yl]carbamate] showed an IC50 of 35 nM.

Compound `Cc1c(F)cccc1C(=O)N[C@@H](Cc1ccccc1)[C@H](O)C(=O)N1C[C@@H](Cl)C[C@H]1C(=O)NC(C)(C)C` [(3-Fluoro-2-methyl)benzoyl-(2S,3S)-AHPBA-4(S)-Cl-Pro-NH-t-Bu] had an IC50 of 5.6 nM.

`CC(C)(C)NC(=O)[C@@H]1C[C@H](Cl)CN1C(=O)[C@@H](O)[C@H](Cc1ccccc1)NC(=O)c1cccc(O)c1` had an IC50 of 9 nM.

Consider `CC(C)(C)NC(=O)[C@@H]1C[C@H](Cl)CN1C(=O)[C@@H](O)[C@H](Cc1ccccc1)NC(=O)c1ccc2ccccc2c1` [beta-Naphthoyl-(2S,3S)-AHPBA-4(S)-Cl-Pro-NH-t-Bu], for which the IC50 is 50 nM.

On to `Cc1c(O)cccc1C(=O)N[C@@H](Cc1ccccc1)[C@H](O)C(=O)N1C[C@@H](Cl)C[C@H]1C(=O)NC(C)(C)C` [(3-Hydroxy-2-methylbenzoyl)-(2(S)-hydroxy-3(S)-amino-phenylbutanoyl)-4(S)-Cl-Pro-NH-t-Bu], for which the IC50 was 0.8 nM.

With `CC(C)(C)NC(=O)[C@@H]1C[C@H](Cl)CN1C(=O)[C@@H](O)[C@H](Cc1ccccc1)NC(=O)c1ccccc1` [(2S,4S)-N-tert-butyl-4-chloro-1-[(2S,3S)-2-hydroxy-4-phenyl-3-(phenylformamido)butanoyl]pyrrolidine-2-carboxamide], the midpoint of inhibition, the IC50, lay at 26 nM.

`COc1cccc(C(=O)N[C@@H](Cc2ccccc2)[C@H](O)C(=O)N2C[C@@H](Cl)C[C@H]2C(=O)NC(C)(C)C)c1O` [(2-Hydroxy-3-methoxy)benzoyl-(2S,3S) -AHPBA-4(S)-Cl-Pro-NH-t-Bu] gave an IC50 of over 1000 nM.
